The numbers were not newly measured in patent publication US20170136076A1, “THERAPEUTIC COMPOSITIONS COMPRISING HERBAL EXTRACTS AND ESSENTIAL OILS FOR SMOKING AND VAPORIZATION” (NISARGA BIOTECH PRIVATE LIMITED, priority 2015, published 2017), which cites them from elsewhere.

For series [1] the following is noted: after 90 minutes; condenses on the surface of the vaporizer or the balloon.
The conditions of series [2]: pure THC in the vaporizer.

As to `CCCCCc1cc(O)c2c(c1)OC(C)(C)[C@@H]1CCC(C)=C[C@@H]21` [THC, tetrahydrocannabinol], the “loss of THC from stored vapor” value in series [1] is on record as “exceed 50%”. Besides, the “degradation products (delta-8-THC, cannabinol, unknown compounds) detected by HPLC” value in series [2] is “no degradation products”.
